Data on 51 compounds can be found in article PMC3388044, “Probing of Exosites Leads to Novel Inhibitor Scaffolds of HCV NS3/4A Proteinase” (PLoS ONE, 2012).

In one test the target is T1, HCV NS3/4A (wild-type) (Hepatitis C virus genotype 1b, UniProt O92972).
T1 construct: The NS3/4A construct represented the individual NS3 proteinase domain N-terminally fused with an NS4A co-factor; 6xHis; purchased AnaSpec (Fremont, CA)
T1 sequence (O92972 1027-1208): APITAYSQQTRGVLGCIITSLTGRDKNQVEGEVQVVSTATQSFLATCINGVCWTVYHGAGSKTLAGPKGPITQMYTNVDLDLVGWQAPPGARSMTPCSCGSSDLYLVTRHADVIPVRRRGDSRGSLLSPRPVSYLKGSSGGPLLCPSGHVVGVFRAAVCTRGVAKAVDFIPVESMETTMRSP
In words: NS3/4A activity assay with FRET peptide substrate, wild-type enzyme. It is filed as biochemical, HCV genotype 1b, strain HC-J4. Conditions: Table S1 100-1000; wild-type NS3/4A, FRET peptide substrate; read-out: NS3/4A IC50 range class 100-1000. An excerpt: Reagents were purchased from Sigma unless indicated otherwise. The FRET substrate Ac-DE-D(Edans)-EE-Abu-ψ-[COO]-AS-K(Dabsyl)-NH2, purified recombinant wild-type NS3/4A from HCV genotype 1b, strain HC-J4, and the mutants with the V36M, R155K, A156T, D168A and V170A resistance mutations were from AnaSpec (Fremont, CA). The NS3/4A construct represented the individual NS3 proteinase domain N-terminally fused with an NS4A co-factor and tagged with a 6xHis tag. NS3/4A was in active form and the pre-activation by pep-4A or pep4AK was not necessary. Pyroglutamic acid-Arg-Thr-Lys-Arg-7-amino-4-methylcoumarin was from Peptides International (Louisville, KY). West Nile virus NS2B-NS3 proteinase (strain NY99) was expressed, purified and refolded to restore its functional activity as described earlier. The pET15b-Den2-CF40-Gly-NS3pro 185 plasmid encoding the Dengue virus type 2 NS2B-NS3 protease was a kind gift of Dr. Subhash Vasudevan (Program in Emerging Infectious Diseases, DUKE-NUS Graduate Medical School, Singapore). DV NS2B-NS3 proteinase was expressed purified and refolded to restore its functional activity as described previously, [70]. The expression of the soluble C-terminally truncated human furin construct in Sf9 insect cells (an ovarian cell line from fall armyworm Spodoptera frugiperda; Invitrogen, Carlsbad, CA) infected with the recombinant baculovirus and purification of soluble furin from the medium were described earlier. Original human hepatocarcinoma Huh7 cells were obtained from ATCC (Manassas, VA).
The NS3/4A activity assay was performed at 37°C in triplicate in wells of a 96-well plate in 0.2 ml 50 mM HEPES, pH 7.5, containing 100 mM NaCl, 10 mM DTT, 20% glycerol, the Ac-DE-D(Edans)-EE-Abu-ψ-[COO]-AS-K(Dabsyl)-NH2 substrate (10 µM) and the NS3/4A enzyme (10 nM). Reaction velocity was monitored continuously at λex = 355 nm and λem = 500 nm for 10 min using a Spectramax Gemini EM fluorescence spectrophotometer (Molecular Devices, Sunnyvale, CA) and the initial rate of reaction v was recorded for each reaction. There was no significant additional absorption by compounds 1–8 we identified, which might interfere with NS3/4A assay. Compound stock solutions (10 mM) were made in 100% DMSO. Stocks were then diluted using the assay buffer. As a result, the final DMSO concentration was always below 1% in the assay reactions.
To measure the inhibitory potency of the compounds, their increasing concentrations were pre-incubated with the individual proteinases in the corresponding buffer for 30 min at ambient temperature. At least, 7–9 different concentrations were used for each inhibitor. The residual activity of the enzymes was then measured as above. The IC50 values of the inhibitory compounds were calculated by determining the concentrations of the compounds needed to inhibit 50% of the enzyme activity against the peptide substrate. GraphPad Prism was used as fitting software.
In the case of `Cn1ncc2c(Nc3ccc(O)cc3)nc(Cl)nc21` [Compound 42], the IC50 was in the range of 100 to 1000 µM.
Same read-out and setting: the result for `CC(C)(CCC#N)c1nc2sc(C(C)(C)CCC#N)nc2s1` [Compound 43] reads 100 to 1000 µM; that for `CN(C)CCCNc1nc(-c2cccc(C(Cl)(Cl)Cl)c2)nc(C(Cl)(Cl)Cl)n1` [Compound 44], 100 to 1000 µM; that for `FC(F)(F)C(F)(F)c1nc2nc(Cl)c(Cl)nc2[nH]1` [Compound 45], 100 to 1000 µM.
The same measure, in the same setting: the result for `Clc1nc2nc3n(c2nc1Cl)CCC3` [Compound 46] reads 100 to 1000 µM; that for `CSc1nc2nc(Cl)c(Cl)nc2[nH]1` [Compound 47], 100 to 1000 µM.
Same read-out and setting: then `FC(F)(F)C1=N/C(=C2\N=C(C(F)(F)F)N=C2Cl)C(Cl)=N1` [Compound 48], with 100 to 1000 µM.
`CC(CNc1nc(Nc2ccc(Cl)c(Cl)c2)nc(C(Cl)(Cl)Cl)n1)N(C)C` (stereo not drawn) [Compound 49]: the IC50 fell in the range of 100 to 1000 µM.
On the same count and under the same terms, the result for `NC(=S)/N=C(\c1nc2ccc(Cl)cc2[nH]c1=O)C(O)c1ccccc1Cl` (stereo not drawn) [Compound 50] reads 100 to 1000 µM.
As to `OCCOCn1nc(-c2ccccc2)nc1-c1cnccn1` [Compound 51], the IC50 was in the range of 100 to 1000 µM.
With `O=S(=O)(Nc1c(Cl)c(Cl)c(Cl)c(Cl)c1NS(=O)(=O)c1ccccc1)c1ccccc1` [Compound 52], the IC50 was 100 to 1000 µM.
Same read-out and setting: the result for `O=[N+]([O-])c1cc([N+](=O)[O-])c2ccccc2c1NS(=O)(=O)c1ccc(Cl)c(Cl)c1Cl` [Compound 53] reads 100 to 1000 µM; that for `O=C(CCc1nnc2s/c(=C\c3ccccc3[N+](=O)[O-])c(=O)n12)Nc1cc(Cl)c(Cl)cc1Cl` [Compound 54], 100 to 1000 µM; that for `O=C(Nc1ccc(Br)cc1)C(=O)C(C(=O)c1ccc(Cl)c(Cl)c1)C1OC(=O)c2ccccc21` (stereo not drawn) [Compound 55], 100 to 1000 µM.
Take `Cc1cccc(C(C)C)c1NC(=O)C(=O)CC(=O)c1sc(Nc2ccccc2Cl)nc1C` [Compound 56]: the IC50 was in the range of 100 to 1000 µM.
With `CC(=O)Nc1ccc(NC(=O)c2c(Cl)c(Cl)c(Cl)c(Cl)c2-c2nc3ccccc3[nH]2)cc1` [Compound 57], the IC50 is 100 to 1000 µM.
For the compound `COc1ccc(OC)c(NC(=O)c2c(Cl)c(Cl)c(Cl)c(Cl)c2-c2nc3ccccc3[nH]2)c1` [Compound 58], the IC50 was in the range of 100 to 1000 µM.
Still for that read-out and setting: then `S=c1[nH]n2c(COc3ccc(OCc4nnc5sc(=S)[nH]n45)c(Cl)c3)nnc2s1` [Compound 59], with 100 to 1000 µM; and `Cc1cc(S(=O)(=O)Nc2nc3ccsc3c(=O)n2Cc2ccccc2)c(S)cc1Cl` [Compound 60], with 100 to 1000 µM.

Staying with this test, now noted: Table S1; wild-type NS3/4A, FRET peptide substrate; read-out: NS3/4A IC50 range class 10 -100.
On to `Cn1ncc2c(Nc3cc(Cl)ccc3Cl)ncnc21` [Compound 12], for which the IC50 lay within 10 to 100 µM.
On the same count and under the same terms, then `Oc1c(Br)cc(CN(Cc2cc(Br)c(O)c(Br)c2)C2CCCCC2)cc1Br` [Compound 13], with 10 to 100 µM; and `Oc1ccc(C=NCCN=Cc2ccc(O)cc2O)c(O)c1.[Ni]` [Compound 14], with 10 to 100 µM.
Same read-out and setting: then `O=C1C=C(Nc2ccc(Cl)cc2Cl)C(=O)C=C1Nc1ccc(Cl)cc1Cl` [Compound 15], with 10 to 100 µM.
Still for that read-out and setting: the result for `O=C1c2cc(Cl)ccc2-c2ccc(N=Cc3ccc(Cl)c(Cl)c3)cc21` [Compound 16] reads 10 to 100 µM; that for `O=C(CCCC(=O)N/N=C/c1ccc(Cl)cc1Cl)N/N=C/c1ccc(Cl)cc1Cl` [Compound 17], 10 to 100 µM.
On to `FC(F)(F)c1cccc(-c2nc3nc(Cl)c(Cl)nc3[nH]2)c1` [Compound 18], for which the IC50 is 10 to 100 µM.
Still for that read-out and setting: then `CC(C)N(C(=O)CSc1c(Cl)c(Cl)c(Cl)c(Cl)c1Cl)C(C)C` [Compound 19], with 10 to 100 µM; and `O=C(N/N=C\c1cc(Br)cc(Br)c1O)N/N=C/c1cc(Br)cc(Br)c1O` [Compound 20], with 10 to 100 µM.
Same read-out and setting: then `O=C(Nc1ccc(Cl)c(Cl)c1)c1ccc(C(=O)Nc2ccc(Cl)c(Cl)c2)cc1` [Compound 21], with 10 to 100 µM; and `O=C(O)c1c(Br)c(Br)c(Br)c(Br)c1C(=O)Nc1cc([N+](=O)[O-])ccc1O` [Compound 22], with 10 to 100 µM; and `O=C(CNC(=O)Nc1ccc(Cl)c(Cl)c1)NNC(=O)Nc1ccc(F)c(Cl)c1` [Compound 23], with 10 to 100 µM.
On the same count and under the same terms, the result for `O=C(Nc1ccc(Cl)c(Cl)c1)C1C(=O)C(=O)N(c2ccc(Cl)c(Cl)c2)C1=O` (stereo not drawn) [Compound 24] reads 10 to 100 µM.
Take `O=C1CS(=O)(=O)CN1c1ccc(Cl)c(Cl)c1` [Compound 25]: the IC50 is 10 to 100 µM.
Same read-out and setting: the result for `Cc1nn(C(=S)S)c(C)c1N=Nc1cccc(Cl)c1Cl` [Compound 26] reads 10 to 100 µM.
As to `Cc1c(N=Nc2cccc(Cl)c2Cl)c(-c2ccccc2)nn1C(=S)S` [Compound 27], the IC50 fell in the range of 10 to 100 µM.
The same measure, in the same setting: the result for `Cc1nn(C(N)=S)c(C)c1N=Nc1cccc(Cl)c1Cl` [Compound 28] reads 10 to 100 µM; that for `CSC(=S)n1nc(C)c(N=Nc2cccc(Cl)c2Cl)c1C` [Compound 29], 10 to 100 µM.
Regarding `Brc1ccc2c(ccc3c2nnc2ncnn23)c1` [Compound 30], the IC50 lay within 10 to 100 µM.
The same measure, in the same setting: then `OCC(O)C(O)C(O)c1nn(-c2ccccc2)c2nc3cc(Cl)c(Cl)cc3nc12` (stereo not drawn) [Compound 31], with 10 to 100 µM; and `C(=C\c1ccccc1)/Cn1nc(-c2ccccc2)nc1-c1cnccn1` [Compound 32], with 10 to 100 µM; and `Cc1cc(S(=O)(=O)Nc2nc3cc(-c4ccc(Cl)cc4)sc3c(=O)n2N)c(S)cc1Cl` [Compound 33], with 10 to 100 µM.
`Sc1ccccc1Nc1nc(SCc2ccccc2)nc2n[nH]c(Cc3nc4ccccc4s3)c12` [Compound 34]: the IC50 lay in the range of 10 to 100 µM.
As for `Clc1ccc(OCc2nn3c(CCCCc4nnc5sc(COc6ccc(Cl)cc6Cl)nn45)nnc3s2)c(Cl)c1` [Compound 35], the IC50 was in the range of 10 to 100 µM.
On the same count and under the same terms, then `O=S(=O)(Nc1cc(Cl)c(Cl)cc1N=Cc1ccc(N(CCCl)CCCl)cc1F)c1ccccc1` [Compound 36], with 10 to 100 µM.
Still for that read-out and setting: the result for `O=[N+]([O-])c1ccc(O)c(C=Nc2cc(Cl)c(Cl)cc2NS(=O)(=O)c2ccccc2)c1` [Compound 37] reads 10 to 100 µM; that for `O=S(=O)(Nc1c(Cl)c(Cl)c(NS(=O)(=O)c2ccccc2)c(Cl)c1Cl)c1ccccc1` [Compound 38], 10 to 100 µM.
Same read-out and setting: then `O=C(Nc1ccc(Cl)c(Cl)c1)C(=O)C(C(=O)c1ccccc1F)C1OC(=O)c2ccccc21` (stereo not drawn) [Compound 39], with 10 to 100 µM.
With `Clc1ccc(Nc2nc(SCc3ccccc3)nc3n[nH]c(Cc4nn[nH]n4)c23)cc1` [Compound 40], the IC50 is 10 to 100 µM.

The same test, now with this note: wild-type NS3/4A 10 nM, Ac-DE-D(Edans)-EE-Abu-ψ-[COO]-AS-K(Dabsyl)-NH2 10 µM, 30 min pre-incubation; read-out: NS3/4A IC50.
Regarding `FC(F)(F)c1nc2nc(Cl)c(Cl)nc2s1` [Compound 9], the IC50 amounted to 4.5 µM.
Still for that read-out and setting: then `S=c1[nH]nc(CCCCc2n[nH]c(=S)n2/N=C/c2ccc(Cl)cc2Cl)n1/N=C/c1ccc(Cl)cc1Cl` [Compound 10], with 5.25 µM.
Still for that read-out and setting: the result for `O=C(c1ccco1)c1c(C(F)(F)F)n([O-])c2cc(Cl)c(Cl)cc2[n+]1=O` [Compound 11] reads 6.5 µM.
